# Calls of active or inactive are those of the source.
# What was measured:
# [1] = target: T1, Replicative DNA helicase DnaB (Mycobacterium tuberculosis, UniProt P9WMR3); assay: DnaB intein splicing inhibitors, dose response, biochemical, cell-free fluorescence (AID 449749); assay type: functional
# T1 sequence (P9WMR3 whole entry): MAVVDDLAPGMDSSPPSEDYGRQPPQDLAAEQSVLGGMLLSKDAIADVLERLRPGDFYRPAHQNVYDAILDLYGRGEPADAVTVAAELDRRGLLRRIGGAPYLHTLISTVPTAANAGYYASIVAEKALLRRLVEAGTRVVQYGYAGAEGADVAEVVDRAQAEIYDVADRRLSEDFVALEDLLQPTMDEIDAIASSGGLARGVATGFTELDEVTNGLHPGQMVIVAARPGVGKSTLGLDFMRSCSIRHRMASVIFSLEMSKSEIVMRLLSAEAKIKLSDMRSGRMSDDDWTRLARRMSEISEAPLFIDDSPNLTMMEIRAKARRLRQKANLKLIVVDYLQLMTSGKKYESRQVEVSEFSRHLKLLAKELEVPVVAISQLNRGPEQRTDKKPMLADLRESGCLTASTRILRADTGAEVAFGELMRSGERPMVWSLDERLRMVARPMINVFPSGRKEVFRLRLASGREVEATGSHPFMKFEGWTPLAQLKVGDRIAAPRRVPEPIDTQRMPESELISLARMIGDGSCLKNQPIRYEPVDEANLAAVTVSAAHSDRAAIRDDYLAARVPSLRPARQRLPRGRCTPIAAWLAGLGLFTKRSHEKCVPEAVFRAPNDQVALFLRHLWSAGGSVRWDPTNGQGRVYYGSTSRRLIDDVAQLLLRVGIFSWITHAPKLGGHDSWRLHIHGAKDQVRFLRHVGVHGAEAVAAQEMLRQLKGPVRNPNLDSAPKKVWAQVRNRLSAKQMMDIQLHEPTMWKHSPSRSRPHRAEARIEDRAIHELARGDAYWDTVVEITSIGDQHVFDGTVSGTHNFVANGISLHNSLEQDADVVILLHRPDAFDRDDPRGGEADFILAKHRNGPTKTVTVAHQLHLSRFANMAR
# [2] = target: T2, Cytochrome P450 1A2 (Homo sapiens, UniProt P05177);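 note: PubChem cytochrome P450 panel assay, CYP1A2 panel member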
# T2 sequence (P05177 whole entry): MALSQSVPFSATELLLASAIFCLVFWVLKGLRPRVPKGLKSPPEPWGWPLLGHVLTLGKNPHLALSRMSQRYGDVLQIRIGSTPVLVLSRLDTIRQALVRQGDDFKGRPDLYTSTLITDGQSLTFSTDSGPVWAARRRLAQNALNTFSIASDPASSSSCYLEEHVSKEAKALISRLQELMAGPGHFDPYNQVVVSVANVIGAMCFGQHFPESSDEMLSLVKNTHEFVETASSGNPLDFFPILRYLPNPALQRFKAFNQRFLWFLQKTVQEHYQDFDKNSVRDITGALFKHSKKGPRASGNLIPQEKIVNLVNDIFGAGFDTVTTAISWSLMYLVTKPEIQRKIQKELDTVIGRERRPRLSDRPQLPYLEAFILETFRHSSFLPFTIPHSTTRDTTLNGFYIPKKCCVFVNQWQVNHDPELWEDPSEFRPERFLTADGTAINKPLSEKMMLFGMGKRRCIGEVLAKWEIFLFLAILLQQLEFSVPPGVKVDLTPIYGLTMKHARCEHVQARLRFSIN
# [3] = target: Cytochrome P450 2D6 (Homo sapiens, UniProt P10635);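 note: CYP2D6 member of a cytochrome P450 panel assay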
# Chain of Cytochrome P450 2D6 (P10635 whole entry): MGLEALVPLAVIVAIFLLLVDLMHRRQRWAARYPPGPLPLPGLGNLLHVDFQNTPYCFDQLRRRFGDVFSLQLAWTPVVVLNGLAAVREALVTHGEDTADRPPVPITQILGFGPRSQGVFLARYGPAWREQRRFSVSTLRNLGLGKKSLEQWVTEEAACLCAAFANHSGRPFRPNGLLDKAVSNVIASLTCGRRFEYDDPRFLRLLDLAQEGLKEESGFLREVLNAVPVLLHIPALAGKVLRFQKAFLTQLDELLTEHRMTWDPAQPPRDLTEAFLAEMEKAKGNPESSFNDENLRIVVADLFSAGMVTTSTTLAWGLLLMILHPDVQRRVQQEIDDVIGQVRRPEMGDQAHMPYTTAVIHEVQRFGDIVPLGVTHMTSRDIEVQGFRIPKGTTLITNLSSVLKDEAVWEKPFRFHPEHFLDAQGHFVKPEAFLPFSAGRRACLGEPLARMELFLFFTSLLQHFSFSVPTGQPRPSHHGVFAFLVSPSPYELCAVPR
# [4] = target: T3, Protein RecA (Mycobacterium tuberculosis, UniProt P9WHJ3); assay: Fluorescence Cell-Free Homogeneous Dose Retest to Identify Inhibitors of RecA-Intein Splicing Activity. [Related pubchem assays (depositor defined):AID2097, AID2223, AID489010, AID492950]; assay type: functional
# T3 sequence (P9WHJ3 whole entry): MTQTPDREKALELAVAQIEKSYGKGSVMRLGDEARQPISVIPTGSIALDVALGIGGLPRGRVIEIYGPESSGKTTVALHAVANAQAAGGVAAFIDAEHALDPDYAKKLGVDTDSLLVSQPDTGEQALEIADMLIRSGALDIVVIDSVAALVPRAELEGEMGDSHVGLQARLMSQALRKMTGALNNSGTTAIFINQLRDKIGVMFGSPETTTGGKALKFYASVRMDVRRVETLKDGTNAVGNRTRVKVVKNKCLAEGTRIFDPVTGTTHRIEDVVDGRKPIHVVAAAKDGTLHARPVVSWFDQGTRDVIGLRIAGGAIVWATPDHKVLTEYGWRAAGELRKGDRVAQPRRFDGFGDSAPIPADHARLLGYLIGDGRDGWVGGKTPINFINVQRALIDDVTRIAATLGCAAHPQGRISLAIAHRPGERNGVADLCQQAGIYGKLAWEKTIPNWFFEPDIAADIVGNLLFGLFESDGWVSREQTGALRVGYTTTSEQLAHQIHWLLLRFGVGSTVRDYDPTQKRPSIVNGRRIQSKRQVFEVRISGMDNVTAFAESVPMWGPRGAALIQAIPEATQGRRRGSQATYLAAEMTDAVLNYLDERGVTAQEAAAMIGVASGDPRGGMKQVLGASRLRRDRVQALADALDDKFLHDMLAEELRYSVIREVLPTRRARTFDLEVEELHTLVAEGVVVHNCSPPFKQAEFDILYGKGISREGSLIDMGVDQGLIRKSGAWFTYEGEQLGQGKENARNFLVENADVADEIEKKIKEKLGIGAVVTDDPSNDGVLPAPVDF
# [5] = target: Cytochrome P450 3A4 (Homo sapiens, UniProt P08684);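 note: CYP3A4 tested as one member of a cytochrome P450 panel screen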
# Chain of Cytochrome P450 3A4 (P08684 whole entry): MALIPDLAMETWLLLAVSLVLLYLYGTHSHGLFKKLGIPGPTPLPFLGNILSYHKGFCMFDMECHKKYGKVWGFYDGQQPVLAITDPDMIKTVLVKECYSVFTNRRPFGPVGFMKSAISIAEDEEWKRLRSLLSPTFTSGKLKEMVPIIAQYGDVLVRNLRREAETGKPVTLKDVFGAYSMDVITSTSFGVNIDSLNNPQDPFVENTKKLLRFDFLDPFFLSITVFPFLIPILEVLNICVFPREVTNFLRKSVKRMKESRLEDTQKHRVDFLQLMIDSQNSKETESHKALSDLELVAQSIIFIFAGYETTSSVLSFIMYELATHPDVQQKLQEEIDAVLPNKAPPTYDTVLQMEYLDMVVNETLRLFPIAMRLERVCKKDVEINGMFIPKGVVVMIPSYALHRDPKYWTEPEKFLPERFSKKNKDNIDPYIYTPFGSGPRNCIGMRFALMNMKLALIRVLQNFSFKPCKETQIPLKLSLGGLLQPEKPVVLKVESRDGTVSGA
# [6] = Luminescence Cell-Based Dose Retest to Confirm Inhibitors of Cancer Stem Cells. [Related pubchem assays (depositor defined):AID2717, AID2721]; assay type: functional; conditions: Homo sapiens
# [7] = test system: Streptococcus; assay: GAS UMAA2166 growth inhibition – luminescence, BacTiterGlo, counter-screen for streptokinase expression inhibitor project, dose response (AID 1915); assay type: functional, organism-based;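 note: potency for reduction of bacterial viability or growth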
# [8] = target: T4, Streptokinase A (Streptococcus pyogenes serotype M1, UniProt P10520); assay: viability-normalized secreted streptokinase activity reduction – plasminogen activation absorbance, OD405, dose response (AID 1914); assay type: functional, Streptococcus pyogenes M1 GAS;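 note: secreted streptokinase activity via plasminogen activation per viability signal from cell pellet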
# T4 sequence (P10520 whole entry): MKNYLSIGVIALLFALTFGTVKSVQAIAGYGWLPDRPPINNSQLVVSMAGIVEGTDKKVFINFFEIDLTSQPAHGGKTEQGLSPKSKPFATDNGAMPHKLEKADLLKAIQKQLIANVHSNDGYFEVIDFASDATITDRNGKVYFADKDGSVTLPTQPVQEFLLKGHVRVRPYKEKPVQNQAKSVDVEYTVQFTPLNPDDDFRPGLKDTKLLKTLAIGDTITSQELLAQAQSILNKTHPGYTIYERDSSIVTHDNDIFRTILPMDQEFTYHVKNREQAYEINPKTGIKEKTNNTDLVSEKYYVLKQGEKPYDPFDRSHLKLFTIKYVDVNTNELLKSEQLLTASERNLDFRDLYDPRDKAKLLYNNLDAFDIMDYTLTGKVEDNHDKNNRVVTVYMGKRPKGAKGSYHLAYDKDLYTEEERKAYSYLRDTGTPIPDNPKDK
# [9] = alpha-synuclein stem-loop luciferase translation blockers – H4 neuroglioma cells, luminescence, confirmation (AID 1988); assay type: functional, cell-based
# [10] = luciferase reporter signal suppression in cells – H4 neuroglioma cells, luminescence, dose response (AID 1990); assay type: functional, cell-based
# [11] = test system: Streptococcus sp. 'group A'; assay: Streptococcus pyogenes SK(-)GAS viability under kanamycin – luminescence, BacTiterGlo, confirmation, counter-screen for streptokinase expression inhibitor project, dose response (AID 1900); assay type: functional, organism-based
# [12] = Luminescence Cell-Based Dose Response HTS to Identify Inhibitors of 5'UTR Stem-Loop Driven Prion Protein mRNA Translation in H4 Neuroglioblastoma Cells. [Related pubchem assays: 1827 (Project Summary), 1813 (Primary HTS)]; assay type: functional
# [13] = target: Cytochrome P450 2C9 (Homo sapiens, UniProt P11712)
# Chain of Cytochrome P450 2C9 (P11712 whole entry): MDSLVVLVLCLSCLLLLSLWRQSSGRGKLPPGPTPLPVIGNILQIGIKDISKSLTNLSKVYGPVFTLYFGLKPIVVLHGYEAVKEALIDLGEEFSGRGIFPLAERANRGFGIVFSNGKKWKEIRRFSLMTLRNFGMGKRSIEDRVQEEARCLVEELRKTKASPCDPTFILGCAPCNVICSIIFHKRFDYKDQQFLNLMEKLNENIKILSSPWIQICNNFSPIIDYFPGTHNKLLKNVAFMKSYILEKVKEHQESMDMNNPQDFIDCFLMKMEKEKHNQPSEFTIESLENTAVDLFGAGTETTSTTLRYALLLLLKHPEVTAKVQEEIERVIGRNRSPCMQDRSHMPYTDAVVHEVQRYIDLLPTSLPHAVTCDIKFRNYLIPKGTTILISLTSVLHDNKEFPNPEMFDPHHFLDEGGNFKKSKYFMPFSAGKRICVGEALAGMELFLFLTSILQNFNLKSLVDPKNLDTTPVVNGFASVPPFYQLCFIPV
# [14] = target: Cytochrome P450 2C19 (Homo sapiens, UniProt P33261); assay: Cytochrome panel assay with activity outcomes. Panel member name: p450-cyp2c19 Compounds with AC50 equal or less than 10 uM are considered active; assay type: functional; conditions: read-out: AC50
# Chain of Cytochrome P450 2C19 (P33261 whole entry): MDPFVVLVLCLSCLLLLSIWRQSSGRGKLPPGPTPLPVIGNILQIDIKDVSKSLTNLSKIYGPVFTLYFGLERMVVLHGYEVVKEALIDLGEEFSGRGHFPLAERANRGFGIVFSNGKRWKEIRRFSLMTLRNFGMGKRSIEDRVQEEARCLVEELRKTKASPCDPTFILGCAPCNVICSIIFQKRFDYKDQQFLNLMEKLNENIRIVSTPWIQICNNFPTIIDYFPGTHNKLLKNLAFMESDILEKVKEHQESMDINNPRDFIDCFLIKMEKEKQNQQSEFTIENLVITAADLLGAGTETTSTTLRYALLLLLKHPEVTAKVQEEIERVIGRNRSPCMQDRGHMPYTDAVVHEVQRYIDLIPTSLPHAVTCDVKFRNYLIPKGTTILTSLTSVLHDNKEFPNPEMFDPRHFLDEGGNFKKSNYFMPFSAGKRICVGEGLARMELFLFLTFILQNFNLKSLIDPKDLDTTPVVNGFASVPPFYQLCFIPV
# [15] = target: T5, Heat shock factor protein 1 (Mus musculus, UniProt P38532); assay: decrease of HSF1-responsive luciferase luminescence – cell-based, NIH3T3, dose retest, confirmation (AID 2382); assay type: functional;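 note: NIH3T3 fibroblasts with HSF1-driven luciferase reporter stressed by proteasome inhibitor MG132; luminescence from HSF1-driven luciferase expression after 8 hours of MG132 stress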
# T5 sequence (P38532 whole entry): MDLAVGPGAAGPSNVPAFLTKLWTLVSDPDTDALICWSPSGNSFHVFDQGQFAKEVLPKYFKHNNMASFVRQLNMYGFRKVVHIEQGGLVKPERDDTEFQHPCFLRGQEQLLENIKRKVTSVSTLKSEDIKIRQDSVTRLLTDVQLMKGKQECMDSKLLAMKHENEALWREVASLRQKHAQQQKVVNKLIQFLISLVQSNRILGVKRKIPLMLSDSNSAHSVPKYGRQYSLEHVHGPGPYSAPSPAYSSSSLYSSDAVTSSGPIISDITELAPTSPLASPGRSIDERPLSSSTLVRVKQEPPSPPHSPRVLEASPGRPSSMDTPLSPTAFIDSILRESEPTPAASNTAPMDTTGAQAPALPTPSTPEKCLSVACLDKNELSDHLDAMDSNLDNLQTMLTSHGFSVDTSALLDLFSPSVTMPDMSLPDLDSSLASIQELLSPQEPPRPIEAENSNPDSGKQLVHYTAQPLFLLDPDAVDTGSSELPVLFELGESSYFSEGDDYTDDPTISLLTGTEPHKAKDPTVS
# [16] = intracellular Trypanosoma cruzi inhibitors in host cells – cell-based, plate reader, cherry-pick samples, set 3, dose response (AID 651818); assay type: functional;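 note: compounds incubated with infected cells for about four days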
smiles,measurement,setting,value
CCCc1n[nH]c2c1C(c1ccncc1)C(C#N)=C(N)O2 (stereo unspecified),AC50,[1],45.8 µM (active)
same,AC50,[2],25.1 µM (inconclusive)
same,AC50,[3],25.1 µM (inconclusive)
same,EC50,[4],17.6 µM (active)
same,AC50,[5],39.8 µM (inconclusive)
Cc1ccc(CNc2nc(-c3cccs3)nc3ccccc23)cc1,AC50,[6],7 µM (active)
CCCc1nc(NCc2ccccc2)c(C#N)c2c1CCCC2,EC50,[7],18.5 µM (active)
same,EC50,[8],3.06 µM (active)
same,EC50,[9],> 120 µM (not active)
same,EC50,[10],> 120 µM (not active)
same,EC50,[11],14.9 µM (active)
same,EC50,[12],> 120 µM (not active)
Cc1ccc(-c2cc([C@H]3[C@@H]4C=CCC[C@@]4(C)C(=O)N3Cc3ccccc3)ccc2F)cc1,EC50,[7],18 µM (active)
same,EC50,[8],4.92 µM (active)
same,EC50,[11],5.4 µM (active)
same,AC50,[6],3.16 µM (active)
CCC/C=C(\CCC)C(NP(=O)(c1ccccc1)c1ccccc1)c1ccccc1 (stereo unspecified),AC50,[2],15.8 µM (inconclusive)
same,AC50,[3],39.8 µM (inconclusive)
same,AC50,[13],25.1 µM (inconclusive)
same,AC50,[14],20 µM (inconclusive)
O=C(Cc1ccc(-n2c(=O)[nH]c3ccccc3c2=O)cc1)N1CCN(c2cccc(Cl)c2)CC1,AC50,[2],17.8 µM (inconclusive)
same,EC50,[9],> 120 µM (not active)
same,EC50,[10],23 µM (active)
same,AC50,[3],14.1 µM (inconclusive)
same,EC50,[12],25.3 µM (active)
NCCCCCc1nnc(SCc2ccccc2Cl)o1,AC50,[2],28.2 µM (inconclusive)
same,EC50,[9],12.8 µM (active)
same,EC50,[10],14.7 µM (active)
same,EC50,[12],15.7 µM (active)
same,AC50,[13],25.1 µM (inconclusive)
CN1C(=O)/C(=C/c2cccc(Cl)c2)Sc2ccc(C(=O)NCc3cccnc3)cc21,AC50,[6],1.63 µM (active)
CCN(CC)CCC(=O)Nc1ccc2c(c1)N(C(=O)CN(CC)CC)c1ccccc1CC2,AC50,[3],15.8 µM (inconclusive)
c1cc(NC2CC2)nc(-c2ccoc2)n1,AC50,[3],39.8 µM (inconclusive)
C/C(CCN1CCCCc2nc(C)c(C)cc21)=N\O[C@@H](C)c1cc(-c2c(C)cc(C)cc2C)no1,AC50,[3],3.16 µM (inconclusive)
O=c1c(-c2cc(F)cc(F)c2)nc2cnc(N3CCNCC3)nc2n1CCc1ccccc1,AC50,[2],20 µM (inconclusive)
same,AC50,[3],20 µM (inconclusive)
CC(O)(CS(=O)(=O)Cc1ccc(Cl)cc1)C(=O)Nc1cccc(C(F)(F)F)c1 (stereo unspecified),AC50,[3],15.8 µM (inconclusive)
same,AC50,[13],8.91 µM (inconclusive)
COc1cccc(S(=O)(=O)NCc2ccc(C(=O)Nc3cccc(Cl)c3)cc2)c1,AC50,[6],4.31 µM (active)
O=C(Nc1ccc2c(c1)OCCO2)NC1(C(F)(F)F)Oc2ccccc2O1,EC50,[9],> 120 µM (not active)
same,EC50,[10],> 120 µM (not active)
same,EC50,[12],> 120 µM (not active)
same,EC50,[15],12.5 µM (active)
O=C(Nc1ccccc1)OCc1cc(-c2ccc(Cl)cc2)on1,AC50,[3],3.16 µM (inconclusive)
Cc1c(C2(O)CCCCC2)[nH]c2ccc(C(F)(F)F)cc12,AC50,[6],5.63 µM (active)
O=C(CSc1nnc(-c2ccco2)n1-c1ccccc1)NCc1ccco1,AC50,[3],14.1 µM (inconclusive)
Cc1ccc(COc2ccccc2-c2cc(C(=O)N/N=C/c3cccnc3)[nH]n2)cc1,AC50,[6],0.778 µM (active)
C[C@@H]1CN([C@@H](C)CO)C(=O)c2cccc(NC(=O)Nc3ccccc3)c2O[C@H]1CN(C)Cc1ccc(C(=O)Nc2ccccc2N)cc1,AC50,[16],0.869 µM (active)
Cc1ccc(S(=O)(=O)Nc2ccc3c(c2)CC(=O)N([C@H](C)CO)C[C@@H](C)[C@@H](CN(C)Cc2ccc(Oc4ccccc4)cc2)O3)cc1,AC50,[16],2.03 µM (active)
C[C@@H]1CN([C@@H](C)CO)C(=O)Cc2cc(NC(=O)Cc3ccccc3)ccc2O[C@@H]1CN(C)Cc1ccc(C(=O)Nc2ccccc2N)cc1,AC50,[16],3.09 µM (active)
CC1SC(N/N=C/c2cccc([N+](=O)[O-])c2)=NC1=O (stereo unspecified),AC50,[6],2.38 µM (active)

# — ChEMBL document CHEMBL1201862, “PubChem BioAssay data set” (2004)
